# Legend:
# [1] = Lipophilicity, log P of the compound; format: physicochemical; details: octanol/water
# [2] = Distribution coefficient, log D of the compound at pH 7.4; format: physicochemical; details: octanol/water
Compound,logP ([1]; read-out: logP),logD ([2]; read-out: logD),logP [1],logD [2]
O=C(CN1CCOCC1)Nc1ccc2ncnc(Nc3ccc(OCc4cccc(F)c4)c(Cl)c3)c2c1,4.7,4.5,,
c1cc(-c2ccc3ncnc(Nc4cccnn4)c3c2)cc(N2CCOCC2)c1,3.4,3,,
Cc1nnc(Nc2ncnc3ccc(-c4cccc(N5CCOCC5)c4)cc23)nc1C,3,2.8,,
c1cnc(Nc2ncnc3ccc(-c4nccc(N5CCOCC5)n4)cc23)nc1,2.9,2,,
c1cc(Nc2ncnc3ccc(-c4ccnc(N5CCOCC5)n4)cc23)ccn1,,,2.9,3.8
CCn1nccc1Nc1ncnc2ccc(-c3cccc(N4CCOCC4)c3)cc12,3.9,3.2,,
c1cc(-c2ccc3ncnc(Nc4cncs4)c3c2)cc(N2CCOCC2)c1,3.8,,,
Cc1cnc(Nc2ncnc3ccc(-c4cccc(N5CCOCC5)c4)cc23)s1,5,,,
O=c1nc(Nc2ncnc3ccc(-c4cccc(N5CCOCC5)c4)cc23)c(F)c[nH]1,2.7,2.2,,
c1cc(-c2ccc3ncnc(Nc4ccnnc4)c3c2)cc(N2CCOCC2)c1,,,2.8,3.1
c1cc(-c2ccc3ncnc(Nc4nccnn4)c3c2)cc(N2CCOCC2)c1,2.8,,,
Fc1cccc(COc2ccc(Nc3ncnc4ccc(-c5nnc(N6CCOCC6)[nH]5)cc34)cc2Cl)c1,5.3,,,
c1cc(-c2ccc3ncnc(Nc4nccs4)c3c2)cc(N2CCOCC2)c1,4.3,,,
COc1cnc(Nc2ncnc3ccc(-c4cccc(N5CCOCC5)c4)cc23)cn1,3.6,3.8,,
c1cncc(Nc2ncnc3ccc(-c4cccc(N5CCOCC5)c4)cc23)c1,3.8,3.9,,
Cc1cnnc(Nc2ncnc3ccc(-c4cccc(N5CCOCC5)c4)cc23)c1,3.9,,,
c1cc(-c2ccc3ncnc(Nc4ncco4)c3c2)cc(N2CCOCC2)c1,3.6,,,
O=c1nc(Nc2ncnc3ccc(-c4cccc(N5CCOCC5)c4)cc23)cc[nH]1,2.5,,,

Compound,logP ([1]; read-out: logP),logD ([2]; read-out: logD),logP [1],logD [2]
c1cnc(Nc2ncnc3ccc(-c4cccc(N5CCOCC5)c4)cc23)nc1,3.8,2.5,,
Fc1cccc(COc2ccc(Nc3ncnc4ccc(-c5nccc(N6CCOCC6)n5)cc34)cc2Cl)c1,6.5,,,
c1cnc(Nc2ncnc3ccc(-c4ccnc(N5CCOCC5)n4)cc23)nc1,2.9,2.5,,
c1cc(-c2ccc3ncnc(Nc4cnccn4)c3c2)cc(N2CCOCC2)c1,3.2,3.1,,
c1cc(Nc2ncnc3ccc(-c4nccc(N5CCOCC5)n4)cc23)ccn1,,,3,3.4
COc1ccc(Nc2ncnc3ccc(-c4cccc(N5CCOCC5)c4)cc23)cc1Cl,5.4,,,
c1ccc(Nc2ncnc3ccc(-c4cccc(N5CCOCC5)c4)cc23)nc1,4.4,3.9,,
Fc1cccc(COc2ccc(Nc3ncnc4ccc(-n5nncc5CN5CCOCC5)cc34)cc2Cl)c1,5.1,,,
c1cc(-c2ccc3ncnc(Nc4nncs4)c3c2)cc(N2CCOCC2)c1,3.5,,,
c1cc(-c2ccc3ncnc(Nc4cncnc4)c3c2)cc(N2CCOCC2)c1,3.1,3.2,,
Nc1cccnc1Nc1ncnc2ccc(-c3cccc(N4CCOCC4)c3)cc12,3.5,2.8,,
c1cc(-c2ccc3ncnc(Nc4ccncn4)c3c2)cc(N2CCOCC2)c1,3.7,3.1,,
Fc1cccc(COc2ccc(Nc3ncnc4ccc(-c5ccnc(N6CCOCC6)n5)cc34)cc2Cl)c1,6.5,,,
Cc1ccnc(Nc2ncnc3ccc(-c4cccc(N5CCOCC5)c4)cc23)n1,3.9,2.9,,
Nc1ncccc1Nc1ncnc2ccc(-c3cccc(N4CCOCC4)c3)cc12,3.5,2.9,,
CC(=O)Nc1cccnc1Nc1ncnc2ccc(-c3cccc(N4CCOCC4)c3)cc12,3.6,3.2,,
c1cc(-c2ccc3ncnc(Nc4ccncc4)c3c2)cc(N2CCOCC2)c1,3.8,4.1,,
Cc1cc(Nc2ncnc3ccc(-c4cccc(N5CCOCC5)c4)cc23)on1,3.6,,,

# — ChEMBL document CHEMBL4138135, “Optimization of physicochemical properties for 4-anilinoquinazoline inhibitors of trypanosome proliferation” (Eur J Med Chem, 2017)
